{
  "source": "paper PMC8348142",
  "about": "“Antimicrobial Peptide Modifications against Clinically Isolated Antibiotic-Resistant Salmonella” (Molecules, 2021)",
  "key": {"[1]": {"tested_on": "sheep red blood cells", "test": "Hemolytic activity assay", "format": "cell-based", "settings": "for percent hemolysis: 2% sRBCs in PBS, 37 °C, 1 h, OD540, triplicate mean", "experimental": "The peptide toxicity to the mammalian system was screened based on the hemolytic test by measuring the hemoglobin released from ruptured red blood cells (RBCs). In this study, sheep RBCs (sRBCs) were employed. They were thrice washed and prepared as a suspension in phosphate-buffered saline (PBS, Oxoid). A suspension of 2% sRBCs was incubated with 2-fold serial dilutions of peptide (final concentrations; 256 to 1 µM in a total volume of 200 µL) at 37 °C for 1 h. The solutions of 0.1% (final concentration) Triton X-100 (Sigma-Aldrich) and PBS containing the peptide solvent were used instead of the peptides as the controls of hemolysis at 100% and 0%, respectively. Thereafter, the post-incubated suspensions were centrifuged (1000× g, 3 min) to pelletize residual sRBCs. The supernatants were then transferred into a flat-bottom PS 96-well plate and were measured the absorbance at 540 nm (OD540) by a microplate reader. The test was conducted in triplicate and the mean OD540 was used to calculate the hemolysis (%) as; ((OD540 (peptide) − OD540 (PBS + peptide solvent))/(OD540 (0.1% Triton X-100) − OD540 (PBS + peptide solvent))) × 100. The hemolytic concentration 50 (HC50), a concentration inducing 50% hemolysis, was determined.\nThe GraphPad Prism version 7.00 (GraphPad Software, La Jolla, CA, USA) was applied for all statistical analyses and data visualizations. Replicate quantitative results were calculated and shown as mean ± SD, unless otherwise specified. The HC50 values were determined using nonlinear regression analysis. The paired t-test and repeated measures one-way ANOVA with Tukey’s multiple comparison test were applied to compare between 2 groups and among 3 or more groups, respectively. The comparisons were considered as a statistically significant difference when a p-value < 0.05."}, "[2]": {"tested_on": "clinical Salmonella isolates", "test": "MIC, broth microdilution", "format": "cell-based", "settings": "for MIC: MHB, 5 × 10^5 CFU/mL, 37 °C, 18 h, duplicate"}, "[3]": {"test": "Overall hydrophobicity from RP-HPLC data (percent acetonitrile at elution)", "format": "physicochemical", "settings": "percentage of acetonitrile at which the peptide eluted, more % ACN = more hydrophobic"}, "[4]": {"tested_on": "clinical Salmonella isolates", "test": "MBC, drop plate method, and MBC/MIC mode of action", "format": "cell-based", "settings": "for MBC: drop plate on MHA from MIC plate, 37 °C, 18 h, thrice", "experimental": "All 12 isolates of Salmonella used in this study were clinical isolates and anonymous left-overs from laboratory diagnoses. They were maintained in a 20% glycerol (Sigma-Aldrich) stock at −80 °C and further cultured on Mueller-Hinton agar (MHA, Oxoid, Hampshire, UK) at 37 °C for 18 h to obtain single colonies for antimicrobial assays. This study was approved by the Ethics Committee of the Faculty of Tropical Medicine (Mahidol University, Bangkok, Thailand; MUTM-EXMPT 2017-007).\nThe plate derived from the MIC assay was immediately tested for the MBC using a drop plate method. A volume of 10 µL of the culture from individual wells at MIC, 2MIC, and 4MIC was dropped on MHA plates. […] The experiment was thrice performed.\nIn order to determine whether the peptides have bacteriostatic or bactericidal activity, a ratio of MBC to MIC (MBC/MIC) was applied. The ratio >4 was indicative of bacteriostatic peptide, and ≤4 was inferred as bactericidal peptide."}, "[5]": {"settings": "geometric mean over 12 clinical Salmonella isolates"}},
  "note": "Marks after values point to notes of the source that are not given here. Ends that are not written are not given here.",
  "data": [
    {"substance": "FIRRIARLLRRIF-NH2 [Kn2-5R-NH2]", "values": [
      {"measurement": "HC50 (hemolytic concentration 50)", "setting": "[1]; concentration inducing 50% hemolysis of sRBCs, nonlinear regression, unit (µM)", "result": 67.09, "unit": "µM"},
      {"measurement": "percent hemolysis", "setting": "[1]; peptide 1 µM", "result": 0.1, "unit": "%"},
      {"measurement": "percent hemolysis", "setting": "[1]; peptide 2 µM", "result": 0.3, "unit": "%"},
      {"measurement": "percent hemolysis", "setting": "[1]; peptide 4 µM", "result": "2 * %"},
      {"measurement": "percent hemolysis", "setting": "[1]; peptide 8 µM", "result": 2.5, "unit": "%"},
      {"measurement": "percent hemolysis", "setting": "[1]; peptide 16 µM", "result": 5.4, "unit": "%"},
      {"measurement": "percent hemolysis", "setting": "[1]; peptide 32 µM", "result": 16.9, "unit": "%"},
      {"measurement": "percent hemolysis", "setting": "[1]; peptide 64 µM", "result": 40.3, "unit": "%"},
      {"measurement": "percent hemolysis", "setting": "[1]; peptide 128 µM", "result": 99.3, "unit": "%"},
      {"measurement": "percent hemolysis", "setting": "[1]; peptide 256 µM", "result": 99.5, "unit": "%"},
      {"measurement": "concentration required for the initiation of hemolysis", "setting": "[1]; sRBCs, 60 min, 256–1 µM tested", "result": 1000, "unit": "nM"},
      {"measurement": "GM of MIC (GMMIC)", "setting": "[2]; [5]", "result": 4, "unit": "µM"},
      {"measurement": "MIC", "setting": "[2]; isolate 5 (Enteritidis, blood; resistant AMP, SXT, KZ)", "result": 4, "unit": "µM"},
      {"measurement": "MIC", "setting": "[2]; isolate 7 (Typhimurium, blood; resistant AMP, CN, TE, NA, SXT)", "result": 4, "unit": "µM"},
      {"measurement": "MIC", "setting": "[2]; isolate 11 (I 1,4:i:-, blood; resistant AMP, TE, NA, SXT, C)", "result": 4, "unit": "µM"},
      {"measurement": "MIC", "setting": "[2]; isolate 18 (Stanley, urine; resistant TE, SXT, C)", "result": 4, "unit": "µM"},
      {"measurement": "MIC", "setting": "[2]; isolate 26 (Typhimurium, urine; resistant TZP, TE, NA)", "result": 4, "unit": "µM"},
      {"measurement": "MIC", "setting": "[2]; isolate 27 (Typhimurium, stool; resistant AMP, TE, NA, SXT, CIP)", "result": 4, "unit": "µM"},
      {"measurement": "MIC", "setting": "[2]; isolate 55 (Typhimurium, blood; resistant AMP, SXT, C, TE)", "result": 4, "unit": "µM"},
      {"measurement": "MIC", "setting": "[2]; isolate 61 (Enteritidis, blood; resistant AMP, TE, NA, SXT)", "result": 4, "unit": "µM"},
      {"measurement": "MIC", "setting": "[2]; isolate 69 (Typhimurium, stool; resistant AMP)", "result": 4, "unit": "µM"},
      {"measurement": "MIC", "setting": "[2]; isolate 76 (Enteritidis, CSF; resistant NA)", "result": 4, "unit": "µM"},
      {"measurement": "MIC", "setting": "[2]; isolate 78 (Enteritidis, blood; resistant TE, CIP, NA, SXT)", "result": 4, "unit": "µM"},
      {"measurement": "MIC", "setting": "[2]; isolate 107 (Typhimurium, stool; susceptible)", "result": 4, "unit": "µM"},
      {"measurement": "ACN (%) at elution, overall hydrophobicity", "setting": "[3]", "result": 42.1, "unit": "%"},
      {"measurement": "GM of MBC", "setting": "[4]; [5]", "result": 4, "unit": "µM"},
      {"measurement": "MBC", "setting": "[4]; isolate 5 (Enteritidis)", "result": 4, "unit": "µM"},
      {"measurement": "MBC", "setting": "[4]; isolate 7 (Typhimurium)", "result": 4, "unit": "µM"},
      {"measurement": "MBC", "setting": "[4]; isolate 11 (I 1,4:i:-)", "result": 4, "unit": "µM"},
      {"measurement": "MBC", "setting": "[4]; isolate 18 (Stanley)", "result": 4, "unit": "µM"},
      {"measurement": "MBC", "setting": "[4]; isolate 26 (Typhimurium)", "result": 4, "unit": "µM"},
      {"measurement": "MBC", "setting": "[4]; isolate 27 (Typhimurium)", "result": 4, "unit": "µM"},
      {"measurement": "MBC", "setting": "[4]; isolate 55 (Typhimurium)", "result": 4, "unit": "µM"},
      {"measurement": "MBC", "setting": "[4]; isolate 61 (Enteritidis)", "result": 4, "unit": "µM"},
      {"measurement": "MBC", "setting": "[4]; isolate 69 (Typhimurium)", "result": 4, "unit": "µM"},
      {"measurement": "MBC", "setting": "[4]; isolate 76 (Enteritidis)", "result": 4, "unit": "µM"},
      {"measurement": "MBC", "setting": "[4]; isolate 78 (Enteritidis)", "result": 4, "unit": "µM"},
      {"measurement": "MBC", "setting": "[4]; isolate 107 (Typhimurium)", "result": 4, "unit": "µM"},
      {"measurement": "MBC/MIC ratio", "setting": "[4]; ≤4 bactericidal, >4 bacteriostatic, 12 clinical Salmonella isolates", "result": 1}
    ]}
  ]
}
